Consider 22 compounds from US20240116933A1, “INDAZOLE AND PYRAZOLOPYRIDINE COMPOUNDS AS INHIBITORS OF NLRP3 INFLAMMASOME” (BioAge Labs, Inc., priority 2022, published 2024).

Where only a bound is given, the exact number is not on record here.

T1 sequence (Q96P20 whole entry): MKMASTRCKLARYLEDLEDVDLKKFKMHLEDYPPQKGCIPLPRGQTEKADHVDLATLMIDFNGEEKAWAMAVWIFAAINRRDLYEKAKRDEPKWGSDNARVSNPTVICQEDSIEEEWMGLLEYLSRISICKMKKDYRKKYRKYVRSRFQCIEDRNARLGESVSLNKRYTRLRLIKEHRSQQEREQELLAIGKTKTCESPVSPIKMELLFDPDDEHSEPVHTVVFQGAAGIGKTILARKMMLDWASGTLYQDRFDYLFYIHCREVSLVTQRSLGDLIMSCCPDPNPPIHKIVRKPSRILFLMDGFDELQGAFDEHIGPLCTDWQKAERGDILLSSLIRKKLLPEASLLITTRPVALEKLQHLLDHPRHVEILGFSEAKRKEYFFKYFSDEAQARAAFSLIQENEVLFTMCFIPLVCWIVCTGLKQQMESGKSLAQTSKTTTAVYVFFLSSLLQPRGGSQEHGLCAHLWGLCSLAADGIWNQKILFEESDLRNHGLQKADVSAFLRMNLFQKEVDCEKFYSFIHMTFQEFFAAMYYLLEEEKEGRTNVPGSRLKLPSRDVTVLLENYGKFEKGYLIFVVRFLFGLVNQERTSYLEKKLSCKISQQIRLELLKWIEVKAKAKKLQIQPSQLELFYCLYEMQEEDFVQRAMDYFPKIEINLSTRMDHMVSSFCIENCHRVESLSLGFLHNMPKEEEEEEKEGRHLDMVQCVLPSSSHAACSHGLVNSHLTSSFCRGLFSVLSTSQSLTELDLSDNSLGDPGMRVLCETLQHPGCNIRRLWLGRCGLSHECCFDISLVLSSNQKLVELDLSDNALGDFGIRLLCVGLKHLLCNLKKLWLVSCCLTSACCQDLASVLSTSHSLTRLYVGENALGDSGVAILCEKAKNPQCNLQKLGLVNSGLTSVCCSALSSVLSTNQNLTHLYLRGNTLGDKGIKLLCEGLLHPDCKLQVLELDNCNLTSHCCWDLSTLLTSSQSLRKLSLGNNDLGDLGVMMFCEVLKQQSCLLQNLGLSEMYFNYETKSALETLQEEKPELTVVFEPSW

This assay concerns the target T1, NLRP3 inflammasome (Homo sapiens, UniProt Q96P20).
T1 construct: endogenous in cells; host or cells: THP-1 cells (PMA-differentiated, LPS-primed, nigericin-stimulated)
The experiment in a line: THP-1 Cell-Based NLRP3 Activation Assay. The note with it: THP-1 cells, PMA, 100 ng/mL LPS 3 hrs, 30 min pre-incubation with test compound, 10 μM nigericin 1 hr. As to the method:
THP-1 cells are cultured in complete media (CM) until they reach logarithmic growth and achieve a viability >90%. CM is composed of RPMI-1640 (+Glutamax)/10% fetal bovine serum/55 μM β-mercaptoethanol/pen/strep. Cells are spun down and resuspended to 1,000,000 cells/mL in CM containing either 20 nM or 500 nM PMA. 150,000 cells […] are then added to each well of a 96-well TC plate and incubated for either 24 hr or 3 hr, respectively, in a standard cell culture incubator (37° C.; 5% CO2). After this incubation, the plate is tilted and media carefully removed. 200 μL of CM containing 100 ng/mL LPS is then added to the wells and the cells incubated an additional 3 hrs. The media is again removed and replaced with Opti-Mem medium containing pre-determined dilutions of test compounds in replicate wells. After a 30 min pre-incubation with test compound, 10 μM nigericin (final concentration) in Opti-Mem medium with the corresponding concentration of compound is added to the wells for an additional 1 hr. Positive control wells contain 10 μM nigericin in Opti-Mem in the absence of test compound, while negative control wells contain Opti-Mem only. […] Once supernatants are removed, the relative viability of adherent cells in the 96-well TC plate are determined using a CellTiter-Glo® luminescent cell viability assay (Promega).
As a reminder, the IC50 is the point on the concentration scale where inhibition reaches its midpoint. High values mean weaker potency in that assay, low ones greater potency in that assay. In turn, `CCOc1cc(C(=O)N(C)Cc2cnc(CO)c3cn[nH]c23)cc(F)c1-c1cc(F)cs1` [Compound 093] came in with a 50% inhibitory concentration (IC50) below 1000 nM.
For the compound `CN(Cc1cnc(CO)c2cn[nH]c12)C(=O)c1ccc(-c2cccc(Cl)c2)c(OC2CCC2)c1` [Compound 084], the concentration for half-maximal inhibition (IC50) is below 1000 nM.
`CCOc1nc(C(=O)N(C)[C@H](C)c2cncc3cn[nH]c23)ccc1-c1cccc(F)c1` [Compound 057]: the IC50 was below 50000 nM.
Take `CCOc1cc(C(=O)N(C)[C@@H](C)c2c(C)ncc3cn[nH]c23)ccc1-c1cccc(F)c1` [Compound 045]: the IC50 was below 10000 nM.
In the case of `CCOc1cc(C(=O)N(C)C(C)c2cnc(CF)c3cn[nH]c23)ccc1-c1cccc(F)c1` (stereo not shown) [Compound 055] it was below 1000 nM; in that of `Cc1nc(C)c2cn[nH]c2c1CN(C)C(=O)c1cc(F)c(-c2cccc(Cl)c2)c(OC2CC2)c1` [Compound 120], below 1000 nM.
`CC(O)c1ncc(CN(C)C(=O)c2cc(F)c(-c3cccc(C#N)c3)c(OC3CC3)c2)c2[nH]ncc12` (stereo not shown) [Compound 091] had a concentration for half-maximal inhibition (IC50) below 1000 nM.
`Cc1ncc2cn[nH]c2c1CN(C)C(=O)c1cc(F)c(-c2cccc(Cl)c2)c(OC2CC2)c1` [Compound 068] returned an IC50 below 1000 nM.
`CCOc1cc(C(=O)N(C)Cc2cnc(C(C)O)c3cn[nH]c23)ccc1-c1nc(Cl)cs1` (stereo not shown) [Compound 158] returned an IC50 below 1000 nM.
For `CCOc1cc(C(=O)N(C)[C@H](C)c2cc(F)cc3cn[nH]c23)ccc1-c1cccc(F)c1` [Compound 043], the IC50 is below 50000 nM.
In the case of `CN(Cc1cnc(CO)c2cn[nH]c12)C(=O)c1ccc(-c2cccc(Cl)c2)c(OC2COC2)c1` [Compound 108] it was below 1000 nM.
In the case of `CCOc1cc(C(=O)N(C)Cc2cc(O)c(C)c3cn[nH]c23)ccc1-c1cccc(F)c1` [Compound 015] it was below 1000 nM; in that of `CCOc1nc(C(=O)N(C)[C@@H](C)c2cncc3cn[nH]c23)ccc1-c1cccc(F)c1` [Compound 056], below 1000 nM.
For the compound `Cc1ncc(CN(C)C(=O)c2cc(F)c(-c3ccccc3)c(OC3CC3)c2)c2[nH]ncc12` [Compound 064], the 50% inhibitory concentration (IC50) was below 1000 nM.
In the case of `CCCOc1cc(C(=O)N(C)Cc2cnc(CO)c3cn[nH]c23)cc(F)c1-c1cccc(F)c1` [Compound 138] it was below 1000 nM; in that of `Cc1ncc(CN(C)C(=O)c2cc(F)c(-c3cccc(F)c3)c(OC3CC3)c2)c2[nH]ncc12` [Compound 038], below 1000 nM; in that of `Cc1nc(CO)c2cn[nH]c2c1CN(C)C(=O)c1ccc(-c2cccc(C#N)c2)c(OC2CC2)c1` [Compound 078], below 1000 nM.
`CCOc1cc(C(=O)N(C)Cc2c(C)nc(C(C)O)c3cn[nH]c23)ccc1-c1cccc(F)c1` (stereo not shown) [Compound 079] registered an IC50 below 1000 nM.
The figure for `CN(Cc1cnc(CO)c2cn[nH]c12)C(=O)c1cc(Cl)c(-c2cccc(F)c2)c(OC2CC2)c1` [Compound 162] is below 1000 nM; for `CCOc1cc(C(=O)N(C)Cc2cnc(CO)c3cn[nH]c23)cc(Cl)c1-c1cccc(F)c1` [Compound 175] it is below 10000 nM; for `CCOc1cc(C(=O)N(C)[C@@H](C)c2cc(F)cc3cn[nH]c23)ccc1-c1cccc(F)c1` [Compound 042] it is below 1000 nM.
Regarding `CCOc1cc(C(=O)N(C)Cc2cccc3[nH]ncc23)ccc1-c1cccc(F)c1` [Compound 129], the IC50 is below 10000 nM.
